HELM strings list units from the 5' end as sugar, base in round brackets, then linkage (d deoxyribose, r ribose, m 2'-O-methyl, p phosphodiester). Strings are as the collection lists them; they lack the last nucleoside at the 3' end of the tested compound. [moe] = 2'-O-(2-methoxyethyl) (MOE); [sp] = phosphorothioate linkage; [m5C] = 5-methylcytosine
Each substance was assayed against PRNP (assay: mouse, dose not given). Conditions: ASO.

In order of rising 3 h FOB score:
1. RNA1{[moe](T)[sp].[moe](G)p.[moe](G)p.[moe](T)p.[moe](A)[sp].d(G)[sp].d(T)[sp].d(T)[sp].d(T)[sp].d(T)[sp].d(T)[sp].d([m5C])[sp].d(A)[sp].d(A)[sp].d(A)[sp].[moe](T)p.[moe]([m5C])p.[moe](A)[sp].[moe](A)}$$$$ (last 3' nucleoside missing)  0 score 0-7
2. RNA1{[moe](T)[sp].[moe](G)p.[moe](G)p.[moe](T)p.[moe](G)[sp].d(A)[sp].d(T)[sp].d(T)[sp].d(T)[sp].d(T)[sp].d(T)[sp].d(T)[sp].d([m5C])[sp].d([m5C])[sp].d(T)[sp].[moe](T)p.[moe](T)p.[moe]([m5C])[sp].[moe](T)}$$$$ (last 3' nucleoside missing)  0 score 0-7
3. RNA1{[moe](T)[sp].[moe](G)p.[moe](G)p.[moe]([m5C])p.[moe](A)[sp].d([m5C])[sp].d(T)[sp].d(T)[sp].d(T)[sp].d([m5C])[sp].d(T)[sp].d(T)[sp].d(T)[sp].d(T)[sp].d(T)[sp].[moe](A)p.[moe](T)p.[moe](T)[sp].[moe](T)}$$$$ (last 3' nucleoside missing)  0 score 0-7
4. RNA1{[moe](T)[sp].[moe](G)p.[moe](T)p.[moe](G)p.[moe]([m5C])[sp].d(T)[sp].d(T)[sp].d(A)[sp].d(T)[sp].d(T)[sp].d(A)[sp].d(T)[sp].d(T)[sp].d([m5C])[sp].d(A)[sp].[moe](T)p.[moe](G)p.[moe](T)[sp].[moe](T)}$$$$ (last 3' nucleoside missing)  0 score 0-7
5. RNA1{[moe](T)[sp].[moe](G)p.[moe](T)p.[moe]([m5C])p.[moe](A)[sp].d(G)[sp].d(T)[sp].d(T)[sp].d(T)[sp].d(T)[sp].d(T)[sp].d([m5C])[sp].d([m5C])[sp].d([m5C])[sp].d([m5C])[sp].[moe](A)p.[moe]([m5C])p.[moe](A)[sp].[moe](T)}$$$$ (last 3' nucleoside missing)  0 score 0-7
6. RNA1{[moe](T)[sp].[moe](G)p.[moe](T)p.[moe]([m5C])p.[moe](A)p.d(G)[sp].d(T)[sp].d(T)[sp].d(T)[sp].d(T)[sp].d(T)[sp].d([m5C])[sp].d([m5C])[sp].d([m5C])[sp].[moe]([m5C])[sp].[moe](A)p.[moe]([m5C])p.[moe](A)}$$$$ (last 3' nucleoside missing)  0 score 0-7
7. RNA1{[moe](T)[sp].[moe](G)p.[moe](T)p.[moe]([m5C])p.[moe](A)p.d(T)[sp].d(A)[sp].d(A)[sp].d(T)[sp].d(T)[sp].d(T)[sp].d(T)[sp].d([m5C])[sp].d(T)[sp].[moe](T)p.[moe](A)p.[moe](G)[sp].[moe]([m5C])}$$$$ (last 3' nucleoside missing)  0 score 0-7
8. RNA1{[moe](T)[sp].[moe](G)p.[moe](T)p.[moe]([m5C])p.d(A)[sp].d(G)[sp].d(T)[sp].d(T)[sp].d(T)[sp].d(T)[sp].d(T)[sp].d([m5C])[sp].d([m5C])[sp].d([m5C])[sp].[moe]([m5C])p.[moe](A)p.[moe]([m5C])p.[moe](A)[sp].[moe](T)}$$$$ (last 3' nucleoside missing)  0 score 0-7
9. RNA1{[moe](T)[sp].[moe](G)p.[moe]([m5C])p.[moe](T)p.[moe](T)[sp].d(A)[sp].d(T)[sp].d(T)[sp].d(A)[sp].d(T)[sp].d(T)[sp].d([m5C])[sp].d(A)[sp].d(T)[sp].d(G)[sp].[moe](T)p.[moe](T)p.[moe]([m5C])[sp].[moe](T)}$$$$ (last 3' nucleoside missing)  0 score 0-7
10. RNA1{[moe](T)[sp].[moe](T)p.[moe](G)p.[moe](T)p.[moe](G)[sp].d(A)[sp].d([m5C])[sp].d(A)[sp].d(A)[sp].d(T)[sp].d(A)[sp].d(T)[sp].d(T)[sp].d(T)[sp].d(A)[sp].[moe]([m5C])p.[moe](T)p.[moe]([m5C])[sp].[moe](T)}$$$$ (last 3' nucleoside missing)  0 score 0-7
11. RNA1{[moe](T)[sp].[moe](G)p.[moe](G)p.[moe]([m5C])p.[moe](A)p.[moe]([m5C])p.d(T)[sp].d(T)[sp].d(T)[sp].d([m5C])[sp].d(T)[sp].d(T)[sp].d(T)[sp].d(T)[sp].d(T)[sp].d(A)[sp].[moe](T)p.[moe](T)[sp].[moe](T)}$$$$ (last 3' nucleoside missing)  0.25 score 0-7
12. RNA1{[moe](T)[sp].[moe](G)p.[moe](T)p.[moe]([m5C])p.[moe](A)p.[moe](G)p.d(T)[sp].d(T)[sp].d(T)[sp].d(T)[sp].d(T)[sp].d([m5C])[sp].d([m5C])[sp].d([m5C])[sp].d([m5C])[sp].d(A)[sp].[moe]([m5C])p.[moe](A)[sp].[moe](T)}$$$$ (last 3' nucleoside missing)  0.5 score 0-7
13. RNA1{[moe](T)[sp].[moe](G)p.[moe](T)p.[moe](G)p.[moe]([m5C])[sp].d(T)[sp].d(T)[sp].d(T)[sp].d(T)[sp].d([m5C])[sp].d([m5C])[sp].d(T)[sp].d(T)[sp].d(T)[sp].d([m5C])[sp].[moe](A)p.[moe](G)p.[moe](A)[sp].[moe](T)}$$$$ (last 3' nucleoside missing)  0.75 score 0-7
14. RNA1{[moe](T)[sp].[moe](G)p.[moe](G)p.[moe](T)p.[moe](G)[sp].d(T)[sp].d(T)[sp].d(A)[sp].d(T)[sp].d(A)[sp].d([m5C])[sp].d(A)[sp].d(T)[sp].d(T)[sp].d(T)[sp].[moe](A)p.[moe](G)p.[moe](G)[sp].[moe]([m5C])}$$$$ (last 3' nucleoside missing)  1 score 0-7
15. RNA1{[moe](T)[sp].[moe](G)p.[moe](G)p.[moe](T)p.[moe](T)[sp].d(A)[sp].d(T)[sp].d(T)[sp].d(T)[sp].d(T)[sp].d(A)[sp].d(A)[sp].d(T)[sp].d(A)[sp].d(G)[sp].[moe](A)p.[moe](T)p.[moe](G)[sp].[moe](T)}$$$$ (last 3' nucleoside missing)  1 score 0-7
16. RNA1{[moe](T)[sp].[moe](G)p.[moe](T)p.[moe](G)p.[moe](T)[sp].d([m5C])[sp].d(A)[sp].d(T)[sp].d(A)[sp].d(A)[sp].d(T)[sp].d(T)[sp].d(T)[sp].d(T)[sp].d([m5C])[sp].[moe](T)p.[moe](T)p.[moe](A)[sp].[moe](G)}$$$$ (last 3' nucleoside missing)  1 score 0-7
17. RNA1{[moe](T)[sp].[moe](G)p.[moe](T)p.[moe](T)p.[moe](T)[sp].d(G)[sp].d(T)[sp].d(T)[sp].d(T)[sp].d([m5C])[sp].d(T)[sp].d(T)[sp].d([m5C])[sp].d([m5C])[sp].d(A)[sp].[moe](T)p.[moe](T)p.[moe](G)[sp].[moe]([m5C])}$$$$ (last 3' nucleoside missing)  1 score 0-7
18. RNA1{[moe](T)[sp].[moe](G)p.[moe]([m5C])p.[moe](A)p.[moe]([m5C])[sp].d(A)[sp].d([m5C])[sp].d(T)[sp].d(G)[sp].d(A)[sp].d([m5C])[sp].d([m5C])[sp].d(A)[sp].d(T)[sp].d(T)[sp].[moe](T)p.[moe](T)p.[moe](T)[sp].[moe](T)}$$$$ (last 3' nucleoside missing)  1 score 0-7
19. RNA1{[moe](T)[sp].[moe](G)p.[moe](T)p.[moe](G)p.[moe](A)[sp].d([m5C])[sp].d(A)[sp].d(A)[sp].d(T)[sp].d(A)[sp].d(T)[sp].d(T)[sp].d(T)[sp].d(A)[sp].d([m5C])[sp].[moe](T)p.[moe]([m5C])p.[moe](T)[sp].[moe](T)}$$$$ (last 3' nucleoside missing)  2.25 score 0-7
20. RNA1{[moe](T)[sp].[moe](T)p.[moe](A)p.[moe]([m5C])p.[moe](T)[sp].d([m5C])[sp].d(G)[sp].d(G)[sp].d([m5C])[sp].d(T)[sp].d(T)[sp].d(G)[sp].d(T)[sp].d(T)[sp].d([m5C])[sp].[moe]([m5C])p.[moe](A)p.[moe]([m5C])[sp].[moe](T)}$$$$ (last 3' nucleoside missing)  2.5 score 0-7
21. RNA1{[moe](T)[sp].[moe](G)p.[moe]([m5C])p.[moe]([m5C])p.[moe](A)[sp].d([m5C])[sp].d(A)[sp].d(T)[sp].d(A)[sp].d(T)[sp].d(A)[sp].d(G)[sp].d(G)[sp].d(G)[sp].d(T)[sp].[moe]([m5C])p.[moe]([m5C])p.[moe](T)[sp].[moe](T)}$$$$ (last 3' nucleoside missing)  3 score 0-7
22. RNA1{[moe](T)[sp].[moe](G)p.[moe](G)p.[moe]([m5C])p.[moe](T)[sp].d(T)[sp].d(A)[sp].d([m5C])[sp].d(T)[sp].d([m5C])[sp].d(G)[sp].d(G)[sp].d([m5C])[sp].d(T)[sp].d(T)[sp].[moe](G)p.[moe](T)p.[moe](T)[sp].[moe]([m5C])}$$$$ (last 3' nucleoside missing)  3.75 score 0-7
23. RNA1{[moe](T)[sp].[moe](G)p.[moe](T)p.[moe](T)p.[moe](A)[sp].d(T)[sp].d(T)[sp].d(T)[sp].d([m5C])[sp].d([m5C])[sp].d(T)[sp].d([m5C])[sp].d(T)[sp].d(G)[sp].d(T)[sp].[moe](G)p.[moe]([m5C])p.[moe](T)[sp].[moe](T)}$$$$ (last 3' nucleoside missing)  3.75 score 0-7
24. RNA1{[moe](T)[sp].[moe](G)p.[moe](G)p.[moe](T)p.[moe](T)[sp].d(A)[sp].d([m5C])[sp].d(A)[sp].d(T)[sp].d(A)[sp].d(A)[sp].d(T)[sp].d(G)[sp].d(T)[sp].d(T)[sp].[moe]([m5C])p.[moe](A)p.[moe](T)[sp].[moe](T)}$$$$ (last 3' nucleoside missing)  4 score 0-7
25. RNA1{[moe](T)[sp].[moe](G)p.[moe](T)p.[moe](A)p.[moe](G)[sp].d(A)[sp].d(A)[sp].d(G)[sp].d([m5C])[sp].d(A)[sp].d(T)[sp].d(T)[sp].d(G)[sp].d(T)[sp].d(A)[sp].[moe]([m5C])p.[moe]([m5C])p.[moe](T)[sp].[moe]([m5C])}$$$$ (last 3' nucleoside missing)  4.5 score 0-7
26. RNA1{[moe](T)[sp].[moe](G)p.[moe](G)p.[moe](T)p.[moe](T)[sp].d(A)[sp].d(G)[sp].d([m5C])[sp].d(T)[sp].d(T)[sp].d(T)[sp].d(T)[sp].d(T)[sp].d(T)[sp].d(T)[sp].[moe]([m5C])p.[moe](A)p.[moe]([m5C])[sp].[moe](T)}$$$$ (last 3' nucleoside missing)  6.25 score 0-7
